Assay results from PMC6377964 (Evidence-based Complementary and Alternative Medicine : eCAM, 2019).
“And” between values parts separate entries of the source, which are not always exact repeats. Equal entries are not always repeated. Where two headings read alike, the source gives them in different places.

How the values were obtained:
[1] = Kinetic profiles of administered and generated stereoisomers in brain, CSF and plasma of rats after oral administration; assay type: in vivo, male Sprague-Dawley (SD) rats; details: for AUC0-180 min, brain / Cmax, brain: rat brain; for AUC(0-t) / Cmax / half-life / Kp / Tmax: male, Sprague-Dawley, po; for half-life: read-out: t 1/2, plasma; for Kp / Tmax: rat; for Tmax: plasma
From the text: Male Sprague-Dawley (SD) rats were provided by the Laboratory Animal Service Center of The Chinese University of Hong Kong, Hong Kong, China. Animals were housed in cages during the study period under standard conditions of temperature, humidity, and light. All animal experiments were approved by the Animal Ethics Committee of The Chinese University of Hong Kong.
One day before the experiment, the male SD rats (160-200 g) were fasted overnight with free access to water. […] The dosage was the same as used in the previous pharmacodynamics studies. […] The rats were exsanguinated by cardiac puncture under anesthesia, followed by collecting their CSF (about 100 μL) through a single puncture in the cisterna magna. Plasma was obtained by centrifugation of blood at 6,000 × g for 8 min at 4°C. After blood collection, the animals were perfused transcardially with normal saline until total blood volume was removed. Then, the whole brain was promptly collected, and the surface water was blotted dry with Kimwipes (Kimberly-Clark™). Blood vessels and meninges were carefully removed with forceps and the brain was weighted. All samples were stored at −20°C until analysis.
Brain homogenate was freshly prepared by homogenizing brain tissues in normal saline (1:2, w/v). Homogenization was conducted in an ice bath using the IKA T10 basic ULTRA-TURRAX Homogenizer for 20–30 s.
The biological samples including brain homogenate, CSF, and plasma (50 μL each) were deproteinized by adding 150 μL of acetonitrile (containing 20 ng/mL IS). After vortex mixing for 1 min, the mixture was centrifuged (20,000 × g) for 10 min at 4°C. After centrifugation, an aliquot (5 μL) of supernatant was subjected to the LC-MS/MS analysis.
The chromatographic separation was achieved on ZORBAX Eclipse Plus C18 column (2.1 × 100 mm, 1.8 μm, Agilent) maintained at 40°C temperature at a flow rate of 0.3 mL/min. A gradient mobile phase consisting of 0.1% formic acid in acetonitrile (A) and 0.1% formic acid in water (B) was eluted as follows: 0–1 min, A, 15–20%; 1–5 min, A, 20–25%; 5–7 min, A, 25–95%; 7–10 min, A held at 95% and returned to the initial condition (acetonitrile-water ratio 15 : 85) for a 3 min equilibration. The temperature of the auto-sampler was kept at 4°C.
All the data were processed using Agilent MassHunter Workstation Software Quantitative Analysis Version B.07.00/Build 7.0.457.0 (Agilent).
Kinetic parameters were calculated using the WinNonlin software (Version 4.0, Pharsight Corp, Mountain View, CA, US) employing a noncompartmental model approach. Epimerization ratio was calculated by AUC(generated stereoisomer)/(AUC(generated stereoisomer) + AUC(administered stereoisomer)) × 100%. The brain-to-plasma partition coefficient (Kp, Brain) was calculated by AUCBrain/AUCPlasma, and the CSF-to-plasma partition coefficient (Kp, CSF) was calculated by AUCCSF/AUCPlasma.
All the data in the study were expressed as mean ± SEM. Statistical analyses were performed using GraphPad Prism 6.0 (GraphPad Software Inc, San Diego, CA, US) using two tailed unpaired t-test for two groups comparison. Statistical significance was set at p value less than 0.05.

[2] = orally administered; cited from earlier work
[3] = parameters: method as in earlier work; details: cited from earlier work
EphA4 = system: EphA4; parameters: method as in PMID 24958880; details: cited from earlier work
HT22 cell = details: cited from earlier work
[4] = mainly mediated by CYP3A4; cited from earlier work
[5] = system: rats with Aβ25-35-induced cognitive deficits; details: oral 20 or 40 mg/kg for 3 weeks; cited from earlier work
P-gp efflux transporter = details: cited from earlier work
APP/PS1 transgenic mice = system: APP/PS1 transgenic mice; parameters: method as in PMID 24958880; details: oral 50 mg/kg/day for 3-4 weeks; cited from earlier work
[6] = administered stereoisomer, 20 mg/kg p.o., rat CSF
[7] = administered stereoisomer, 20 mg/kg p.o.
[8] = generated stereoisomer after 20 mg/kg p.o. of the other stereoisomer
[9] = administered stereoisomer, 20 mg/kg p.o. of the same compound, rat plasma, mean ± SEM, read-out: AUC0-180 min, plasma (converted)
[10] = administered stereoisomer, 20 mg/kg p.o., rat CSF, read-out: AUC0-180 min, CSF (converted)
[11] = administered stereoisomer, 20 mg/kg p.o., rat plasma
[12] = CSF (relative to plasma), administered stereoisomer, 20 mg/kg p.o., AUCCSF/AUCPlasma, read-out: Kp,CSF (CSF-to-plasma partition coefficient)
[13] = brain (relative to plasma), administered stereoisomer, 20 mg/kg p.o., AUCBrain/AUCPlasma, read-out: Kp,Brain (brain-to-plasma partition coefficient)
[14] = 20 mg/kg, administered stereoisomer, 20 mg/kg p.o., rat plasma

SMILES	Cmax, CSF [1, 6]	Cmax, brain [1, 7]	AUC0-180 min, brain [1, 8]	AUC(0-t) [1, 9]	AUC(0-t) [1, 10]	Cmax [1, 11]	half-life [1, 11]	Kp [1, 12]	Kp [1, 13]	Tmax [1, 14]	Bioavailability [2]	pKa [3]	Inhibition of EphA4 (EphA4)	Neuroprotective activity against glutamate-induced HT22 cell injury (HT22 cell)	also measured
CC[C@H]1CN2CC[C@@]3(C(=O)Nc4ccccc43)[C@@H]2C[C@@H]1/C(=C\OC)C(=O)OC [IRN, Isorhynchophylline]	2.14 ± 0.34 ng/mL	7.35 ± 0.74 ng/g	140.76 ± 1.50 ng·min/g	41.4 ng·h/mL	3.4 ng·h/mL	31.3 ± 1.59 ng/mL	1.07 ± 0.0532 h	0.0821 ± 0.005	0.253 ± 0.0187	≤ 0.5 h	3.3 ± 0.8%	5.20	not	significant neuroprotective activity	AUC0-180 min, brain [1, 7]: 627.37 ± 43.31 ng·min/g; Administered IRN metabolically converted to RN ([1]; after oral administration of IRN 20 mg/kg, rats): at least 47%; Metabolism in rat liver microsomes [4]: much more favorable to be metabolized than RN; Cognitive deficits induced by Aβ25-35 [5]: ameliorated cognitive deficits
CC[C@H]1CN2CC[C@]3(C(=O)Nc4ccccc43)[C@@H]2C[C@@H]1/C(=C\OC)C(=O)OC [RN, rhynchophylline]	7.39 ± 0.17^∗∗∗ ng/mL	16.96 ± 1.92^∗∗ ng/g	296.63 ± 9.49^∗∗ ng·min/g	273 ng·h/mL	12.4 ng·h/mL	191 ± 6.34 ng/mL	2.16 ± 0.155 h	0.0453 ± 0.0002	0.0967 ± 0.0063	≤ 0.5 h	25.9 ± 8.7%	6.32	potent inhibitor	weak effect	AUC0-180 min, brain ([1]; administered stereoisomer, 20 mg/kg p.o., 20 mg/kg): 1587.03 ± 127.82 ng·min/g and 1587.03 ± 127.82^∗∗ ng·min/g; Membrane permeability, effect of P-gp efflux (P-gp efflux transporter): affected by P-gp efflux transporter; Long-term potentiation in the hippocampus (APP/PS1 transgenic mice): restored the impaired long-term potentiation
